Values after ≈ are worked out from the molar mass of the structure shown.

Our source for the MIC values is ChEMBL document CHEMBL1135359, “Antifungal sordarins. Synthesis and structure-activity relationships of 3',4'-fused dioxolane and dioxane derivatives” (2002).

Holding throughout (assay type): functional
For one experiment, the system named is Nakaseomyces glabratus. As to the kind of experiment: In vitro antifungal activity for Candida glabrata 2375E.
The test system of experiment [1] is Candida albicans. Kind of experiment: In vitro antifungal activity for Candida albicans 2005E.
The test system of experiment [2] is Candida albicans. As to the kind of experiment: In vitro antifungal activity for Candida albicans 4711E.
Another experiment relates to Kluyveromyces marxianus. Kind of experiment: In vitro antifungal activity for Candida pseudotropicalis 2371E.
Another experiment deals with Candida tropicalis. As to the kind of experiment: In vitro antifungal activity for Candida tropicalis 2808E.
Another experiment concerns Cryptococcus neoformans. Kind of experiment: In vitro antifungal activity for Cryptococcus neoformans 2867E.
For experiment [3], the system named is Candida albicans. Kind of experiment: In vitro antifungal activity for Candida albicans 2402E.

As to `CC(C)C1=CC2CC3(C=O)[C@@H]4CC[C@@H](C)[C@H]4CC2(CO[C@@H]2C[C@@H]4OC(C)(C)O[C@@H]4[C@@H](C)O2)C13C(=O)O` (stereo partly specified), the MIC is greater than 125 µg/mL in the experiment with Nakaseomyces glabratus; 2 µg/mL (≈ 3.98 µM) with Candida albicans [1]; 4 µg/mL (≈ 7.96 µM) against Candida albicans [2]; 4 µg/mL (≈ 7.96 µM) in the experiment on Kluyveromyces marxianus; 16 µg/mL (≈ 31.8 µM) against Candida tropicalis; greater than 125 µg/mL against Cryptococcus neoformans.

For `CC(C)C1=CC2CC3(C=O)[C@@H]4CC[C@@H](C)[C@H]4CC2(CO[C@@H]2O[C@H](C)[C@H]4OC(C)(C)OC4[C@@H]2O)C13C(=O)O` (single isomer, unassigned), the MIC is 31 µg/mL (≈ 59.8 µM) against Nakaseomyces glabratus; 0.12 µg/mL (≈ 0.231 µM) against Candida albicans [1]; 0.5 µg/mL (≈ 0.964 µM) with Candida albicans [3]; 0.12 µg/mL (≈ 0.231 µM) in the experiment with Candida albicans [2]; 0.06 µg/mL (≈ 0.116 µM) in the experiment with Kluyveromyces marxianus; 1 µg/mL (≈ 1.93 µM) in the experiment on Candida tropicalis. Besides, in the experiment with Cryptococcus neoformans, the MIC stood at 125 µg/mL (≈ 241 µM).

In the case of `CC(C)C1=CC2CC3(C=O)[C@@H]4CC[C@@H](C)[C@H]4CC2(CO[C@H]2C[C@@H]4OC(C)(C)CO[C@@H]4[C@@H](C)O2)C13C(=O)O` (stereo partly specified), the MIC with Nakaseomyces glabratus is greater than 125 µg/mL; against Candida albicans [1], 0.015 µg/mL (≈ 0.029 µM); with Candida albicans [3] it was 0.12 µg/mL (≈ 0.232 µM); against Candida albicans [2], 0.25 µg/mL (≈ 0.484 µM); with Kluyveromyces marxianus, 0.03 µg/mL (≈ 0.0581 µM); with Candida tropicalis it was 1 µg/mL (≈ 1.94 µM). This compound registered an MIC in the experiment on Cryptococcus neoformans of 31 µg/mL (≈ 60 µM).

As for `CC(C)C1=CC2CC3(C=O)[C@@H]4CC[C@@H](C)[C@H]4CC2(CO[C@@H]2O[C@H](C)[C@H]4OC(C)(C)OC4[C@H]2O)C13C(=O)O` (single isomer, unassigned), the MIC was greater than 125 µg/mL in the experiment with Nakaseomyces glabratus; 2 µg/mL (≈ 3.86 µM) against Candida albicans [1]; 8 µg/mL (≈ 15.4 µM) against Candida albicans [3]; 8 µg/mL (≈ 15.4 µM) against Candida albicans [2]; 2 µg/mL (≈ 3.86 µM) against Kluyveromyces marxianus; 31 µg/mL (≈ 59.8 µM) against Candida tropicalis. Also, in the experiment on Cryptococcus neoformans, the MIC is greater than 125 µg/mL.

Regarding `CC(C)C1=CC2CC3(C=O)[C@@H]4CC[C@@H](C)[C@H]4CC2(CO[C@@H]2O[C@H](C)[C@H]4OC(=S)OC4[C@@H]2O)C13C(=O)O` (single isomer, unassigned), the MIC against Nakaseomyces glabratus is 125 µg/mL (≈ 240 µM); in the experiment on Candida albicans [1], 31 µg/mL (≈ 59.5 µM); against Candida albicans [3], 62 µg/mL (≈ 119 µM); in the experiment on Candida albicans [2], 62 µg/mL (≈ 119 µM); against Kluyveromyces marxianus, 31 µg/mL (≈ 59.5 µM); in the experiment on Candida tropicalis, greater than 125 µg/mL. In the experiment on Cryptococcus neoformans, the MIC was 16 µg/mL (≈ 30.7 µM).

With `CC(C)C1=CC2CC3(C=O)[C@@H]4CC[C@@H](C)[C@H]4CC2(CO[C@H]2C[C@@H]4OCO[C@@H]4[C@@H](C)O2)C13C(=O)O` (stereo partly specified), the MIC against Nakaseomyces glabratus turned out to be 16 µg/mL (≈ 33.7 µM); in the experiment with Candida albicans [1], 0.015 µg/mL (≈ 0.0316 µM); in the experiment with Candida albicans [3], 0.015 µg/mL (≈ 0.0316 µM); against Candida albicans [2], 0.03 µg/mL (≈ 0.0632 µM); in the experiment with Kluyveromyces marxianus, 0.03 µg/mL (≈ 0.0632 µM); in the experiment on Candida tropicalis, 0.25 µg/mL (≈ 0.527 µM). In the experiment with Cryptococcus neoformans, the MIC stood at 0.5 µg/mL (≈ 1.05 µM).

In the case of `CC1O[C@H]2[C@H](C[C@H](OCC34C[C@@H]5[C@H](C)CC[C@H]5C5(C=O)CC3C=C(C(C)C)C45C(=O)O)O[C@@H]2C)O1` (stereo partly specified), the MIC in the experiment on Nakaseomyces glabratus is 8 µg/mL (≈ 16.4 µM); in the experiment on Candida albicans [1], less than 0.001 µg/mL; against Candida albicans [2], less than 0.001 µg/mL; with Kluyveromyces marxianus, 0.004 µg/mL (≈ 0.00819 µM); in the experiment on Candida tropicalis, 0.03 µg/mL (≈ 0.0614 µM); in the experiment with Cryptococcus neoformans, 31 µg/mL (≈ 63.4 µM).

For the compound `CC(C)C1=CC2CC3(C=O)[C@@H]4CC[C@@H](C)[C@H]4CC2(CO[C@H]2C[C@@H]4OC(=O)O[C@@H]4[C@@H](C)O2)C13C(=O)O` (stereo partly specified), the MIC in the experiment on Nakaseomyces glabratus came out at 8 µg/mL (≈ 16.4 µM); against Candida albicans [1], 1 µg/mL (≈ 2.05 µM); in the experiment on Candida albicans [3], 4 µg/mL (≈ 8.19 µM); against Candida albicans [2] it was 2 µg/mL (≈ 4.09 µM); in the experiment with Kluyveromyces marxianus it was 1 µg/mL (≈ 2.05 µM); against Candida tropicalis it was 2 µg/mL (≈ 4.09 µM). The MIC in the experiment with Cryptococcus neoformans was 16 µg/mL (≈ 32.7 µM).

With `CC1OC2[C@H](O)[C@H](OCC34C[C@@H]5[C@H](C)CC[C@H]5C5(C=O)CC3C=C(C(C)C)C45C(=O)O)O[C@H](C)[C@H]2O1` (single isomer, unassigned), the MIC was determined as 62 µg/mL (≈ 123 µM) in the experiment with Nakaseomyces glabratus; 0.03 µg/mL (≈ 0.0595 µM) against Candida albicans [1]; 0.5 µg/mL (≈ 0.991 µM) against Candida albicans [2]; 0.5 µg/mL (≈ 0.991 µM) against Kluyveromyces marxianus; 1 µg/mL (≈ 1.98 µM) against Candida tropicalis; 16 µg/mL (≈ 31.7 µM) with Cryptococcus neoformans.

Turning to `C/C=C/C=C(\C)C(=O)O[C@H]1[C@H](O)[C@H](OCC23C[C@@H]4[C@H](C)CC[C@H]4C4(C=O)CC2C=C(C(C)C)C34C(=O)O)O[C@H](C)[C@H]1OC` (stereo partly specified), the MIC was greater than 125 µg/mL against Nakaseomyces glabratus; 0.015 µg/mL (≈ 0.025 µM) with Candida albicans [1]; 0.03 µg/mL (≈ 0.0499 µM) in the experiment on Candida albicans [3]; 0.25 µg/mL (≈ 0.416 µM) against Candida albicans [2]; 0.03 µg/mL (≈ 0.0499 µM) in the experiment with Kluyveromyces marxianus; 0.06 µg/mL (≈ 0.0999 µM) in the experiment with Candida tropicalis. For the same compound, in the experiment on Cryptococcus neoformans, the MIC worked out at 0.25 µg/mL (≈ 0.416 µM).

Consider `CC(C)C1=CC2CC3(C=O)[C@@H]4CC[C@@H](C)[C@H]4CC2(CO[C@H]2C[C@@H]4OC(=S)O[C@@H]4[C@@H](C)O2)C13C(=O)O` (stereo partly specified), for which the MIC in the experiment with Nakaseomyces glabratus was 16 µg/mL (≈ 31.7 µM); in the experiment on Candida albicans [1], 2 µg/mL (≈ 3.96 µM); in the experiment with Candida albicans [3], 8 µg/mL (≈ 15.9 µM); against Candida albicans [2] it was 2 µg/mL (≈ 3.96 µM); in the experiment with Kluyveromyces marxianus, 1 µg/mL (≈ 1.98 µM); in the experiment with Candida tropicalis it was 125 µg/mL (≈ 248 µM). In the experiment on Cryptococcus neoformans, this compound showed an MIC of 8 µg/mL (≈ 15.9 µM).

As for `CC(C)C1=CC2CC3(C=O)[C@@H]4CC[C@@H](C)[C@H]4CC2(CO[C@H]2C[C@@H]4OC(C)(C)O[C@@H]4[C@@H](C)O2)C13C(=O)O` (stereo partly specified), the MIC in the experiment on Nakaseomyces glabratus was 31 µg/mL (≈ 61.7 µM); against Candida albicans [1], less than 0.001 µg/mL; with Candida albicans [3], 0.008 µg/mL (≈ 0.0159 µM); with Candida albicans [2] it was 0.004 µg/mL (≈ 0.00796 µM); in the experiment on Kluyveromyces marxianus it was 0.004 µg/mL (≈ 0.00796 µM); with Candida tropicalis it was 0.12 µg/mL (≈ 0.239 µM). The compound also returned an MIC in the experiment on Cryptococcus neoformans of 8 µg/mL (≈ 15.9 µM).
